Data as given in PubChem BioAssay AID248 (DTP/NCI, 2004).
Several values for one entry are separate records, joined by “and”; a condition that tells them apart may be missing. Equal values may be shown once. Toxic doses and inconclusive results are not listed. No stated cut-off is given here; in the data, active means T/C of 150% or more; inactive means T/C below 125%.

Test system: L1210 leukemia ip in BDF1 mice, survival T/C
Test: NCI In Vivo Anticancer Drug Screen. Data for tumor model L1210 Leukemia (intraperitoneal) in B6D2F1 (BDF1) mice
Settings: endpoint: mean survival time, higher = longer survival
Outline: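 Tumor cells were implanted, animals were treated, and survival was followed. The result divides the treated measurement by the vehicle-control measurement.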

[1] = dose: 6.25 mg/kg/injection, schedule: Q01DX009 (ip), vehicle: Klucel (hydroxypropylcellulose) (HPC)
[2] = dose: 10.0 mg/kg/injection, schedule: Q01DX001 (ip), vehicle: Klucel (hydroxypropylcellulose) (HPC)
[3] = dose: 10.0 mg/kg/injection, schedule: Q01DX009 (ip), vehicle: Klucel (hydroxypropylcellulose) (HPC)
[4] = dose: 100.0 mg/kg/injection, schedule: Q04DX003 (ip), vehicle: saline
[5] = dose: 200.0 mg/kg/injection, schedule: Q04DX003 (ip), vehicle: saline
[6] = dose: 400.0 mg/kg/injection, schedule: Q04DX003 (ip), vehicle: saline
[7] = dose: 100.0 mg/kg/injection, schedule: Q04DX002 (ip), vehicle: Klucel (hydroxypropylcellulose) (HPC)
[8] = dose: 200.0 mg/kg/injection, schedule: Q04DX002 (ip), vehicle: Klucel (hydroxypropylcellulose) (HPC)
[9] = dose: 100.0 mg/kg/injection, schedule: Q04DX003 (ip), vehicle: Klucel (hydroxypropylcellulose) (HPC)
[10] = dose: 200.0 mg/kg/injection, schedule: Q04DX003 (ip), vehicle: Klucel (hydroxypropylcellulose) (HPC)
[11] = dose: 400.0 mg/kg/injection, schedule: Q04DX003 (ip), vehicle: Klucel (hydroxypropylcellulose) (HPC)
[12] = dose: 100.0 mg/kg/injection, schedule: Q01DX001 (ip), vehicle: carboxymethylcellulose (CMC)
[13] = dose: 200.0 mg/kg/injection, schedule: Q01DX001 (ip), vehicle: carboxymethylcellulose (CMC)

Measured: T/C

C[n+]1ccccc1NC(=O)c1ccc(C(=O)Nc2cccc[n+]2C)cc1
inactive: dose: 7.5 mg/kg/injection, schedule: Q01DX Z (ip), vehicle: saline 98 % of control | dose: 15.0 mg/kg/injection, schedule: Q01DX Z (ip), vehicle: saline 100 % of control | dose: 30.0 mg/kg/injection, schedule: Q01DX Z (ip), vehicle: saline 87 % of control | dose: 120.0 mg/kg/injection, schedule: Q01DX Z (ip), vehicle: saline 87 % of control | dose: 240.0 mg/kg/injection, schedule: Q01DX Z (ip), vehicle: saline 91 % of control

Cc1cc(Cl)c(OC(=O)Nc2ccccc2C(F)(F)F)cc1C
inactive: dose: 100.0 mg/kg/injection, schedule: Q01DX009 (ip), vehicle: Klucel (hydroxypropylcellulose) (HPC) 107 % of control | dose: 200.0 mg/kg/injection, schedule: Q01DX009 (ip), vehicle: Klucel (hydroxypropylcellulose) (HPC) 107 % of control | dose: 400.0 mg/kg/injection, schedule: Q01DX009 (ip), vehicle: Klucel (hydroxypropylcellulose) (HPC) 98 % of control

O=C1c2ccccc2-c2ccc(NC(=O)C(F)(F)F)cc21
inactive: dose: 100.0 mg/kg/injection, schedule: Q01DX001 (ip), vehicle: saline with Tween-80 92 % of control | dose: 200.0 mg/kg/injection, schedule: Q01DX001 (ip), vehicle: saline with Tween-80 90 % of control | dose: 400.0 mg/kg/injection, schedule: Q01DX001 (ip), vehicle: saline with Tween-80 92 % of control

Cc1ccc2nc(C#N)c(C#N)nc2c1
inactive: [1] 106 % of control | dose: 12.5 mg/kg/injection, schedule: Q01DX009 (ip), vehicle: Klucel (hydroxypropylcellulose) (HPC) 97 % of control | dose: 25.0 mg/kg/injection, schedule: Q01DX009 (ip), vehicle: Klucel (hydroxypropylcellulose) (HPC) 95 % of control and 89 % of control

O=c1cccccc1O.O=c1cccccc1O.[Cu]
inactive: dose: 1.56 mg/kg/injection, schedule: Q01DX009 (ip), vehicle: Klucel (hydroxypropylcellulose) (HPC) 97 % of control | dose: 3.12 mg/kg/injection, schedule: Q01DX009 (ip), vehicle: Klucel (hydroxypropylcellulose) (HPC) 94 % of control | dose: 6.0 mg/kg/injection, schedule: Q04DX003 (ip), vehicle: saline 94 % of control | [1] 94 % of control | dose: 12.0 mg/kg/injection, schedule: Q04DX003 (ip), vehicle: saline 95 % of control | dose: 25.0 mg/kg/injection, schedule: Q04DX003 (ip), vehicle: saline 102 % of control

CC1(C)N=C(N)N=C(N)N1c1cccc(OCCOc2ccccc2[N+](=O)[O-])c1
inactive: [2] 108 % of control | [3] 98 % of control and 101 % of control | dose: 10.0 mg/kg/injection, schedule: Q04DX002 (ip), vehicle: Klucel (hydroxypropylcellulose) (HPC) 94 % of control and 90 % of control | dose: 10.0 mg/kg/injection, schedule: Q04DX003 (ip), vehicle: Klucel (hydroxypropylcellulose) (HPC) 96 % of control | dose: 20.0 mg/kg/injection, schedule: Q01DX001 (ip), vehicle: Klucel (hydroxypropylcellulose) (HPC) 104 % of control | dose: 20.0 mg/kg/injection, schedule: Q01DX009 (ip), vehicle: Klucel (hydroxypropylcellulose) (HPC) 102 % of control and 108 % of control | dose: 20.0 mg/kg/injection, schedule: Q04DX002 (ip), vehicle: Klucel (hydroxypropylcellulose) (HPC) 101 % of control and 120 % of control | dose: 20.0 mg/kg/injection, schedule: Q04DX003 (ip), vehicle: Klucel (hydroxypropylcellulose) (HPC) 100 % of control | dose: 40.0 mg/kg/injection, schedule: Q01DX001 (ip), vehicle: Klucel (hydroxypropylcellulose) (HPC) 101 % of control | dose: 40.0 mg/kg/injection, schedule: Q01DX009 (ip), vehicle: Klucel (hydroxypropylcellulose) (HPC) 104 % of control and 108 % of control | dose: 40.0 mg/kg/injection, schedule: Q04DX002 (ip), vehicle: Klucel (hydroxypropylcellulose) (HPC) 94 % of control and 90 % of control | dose: 40.0 mg/kg/injection, schedule: Q04DX003 (ip), vehicle: Klucel (hydroxypropylcellulose) (HPC) 102 % of control

COc1cc2ccc3ccncc3c2cc1OC
inactive: dose: 12.5 mg/kg/injection, schedule: Q01DX009 (ip), vehicle: saline 104 % of control | dose: 25.0 mg/kg/injection, schedule: Q01DX009 (ip), vehicle: saline 106 % of control and 115 % of control | dose: 50.0 mg/kg/injection, schedule: Q01DX009 (ip), vehicle: saline 97 % of control and 111 % of control | [4] 86 % of control

NC(N)=Nc1nc2ccc([N+](=O)[O-])cc2[nH]1
inactive: dose: 100.0 mg/kg/injection, schedule: Q01DX009 (ip), vehicle: saline 93 % of control | [4] 90 % of control | dose: 200.0 mg/kg/injection, schedule: Q01DX009 (ip), vehicle: saline 91 % of control | [5] 94 % of control | dose: 400.0 mg/kg/injection, schedule: Q01DX009 (ip), vehicle: saline 96 % of control | [6] 94 % of control

COc1ccc(Cl)c(C(=O)O)c1
inactive: [7] 114 % of control | [8] 114 % of control | dose: 400.0 mg/kg/injection, schedule: Q04DX002 (ip), vehicle: Klucel (hydroxypropylcellulose) (HPC) 103 % of control

S=C(c1ccccc1)N(c1ccccc1)c1ccc2ccccc2c1
inactive: [9] 98 % of control | [10] 95 % of control | [11] 94 % of control

O=[N+]([O-])c1ccc2c(c1)/C(=N\O)c1cc(Cl)ccc1-2
inactive: [12] 97 % of control | [13] 97 % of control | dose: 400.0 mg/kg/injection, schedule: Q01DX001 (ip), vehicle: carboxymethylcellulose (CMC) 94 % of control

Cc1ccc(Cc2cc(=O)[nH]c(=S)[nH]2)cc1
inactive: [9] 98 % of control | [10] 93 % of control | [11] 92 % of control

CCSC(=O)C1OC(n2cnc3c(N)ncnc32)C2OC(C)(C)OC12 (configuration not stated)
inactive: dose: 100.0 mg/kg/injection, schedule: Q01DX005 (ip), vehicle: saline 100 % of control | dose: 200.0 mg/kg/injection, schedule: Q01DX005 (ip), vehicle: saline 102 % of control

CC1C(O)c2ccccc2OC1N1CCOCC1 (configuration not stated)
inactive: dose: 50.0 mg/kg/injection, schedule: Q04DX002 (ip), vehicle: Klucel (hydroxypropylcellulose) (HPC) 96 % of control | [7] 100 % of control | [8] 93 % of control

BrCc1ccc(Br)cc1
inactive: [12] 96 % of control | [13] 91 % of control

COC[P+](c1ccccc1)(c1ccccc1)c1ccccc1
inactive: dose: 1.25 mg/kg/injection, schedule: Q01DX001 (ip), vehicle: Klucel (hydroxypropylcellulose) (HPC) 96 % of control | dose: 1.25 mg/kg/injection, schedule: Q01DX009 (ip), vehicle: Klucel (hydroxypropylcellulose) (HPC) 90 % of control | dose: 2.5 mg/kg/injection, schedule: Q01DX001 (ip), vehicle: Klucel (hydroxypropylcellulose) (HPC) 105 % of control | dose: 2.5 mg/kg/injection, schedule: Q01DX009 (ip), vehicle: Klucel (hydroxypropylcellulose) (HPC) 92 % of control | dose: 5.0 mg/kg/injection, schedule: Q01DX001 (ip), vehicle: Klucel (hydroxypropylcellulose) (HPC) 97 % of control | dose: 5.0 mg/kg/injection, schedule: Q01DX009 (ip), vehicle: Klucel (hydroxypropylcellulose) (HPC) 96 % of control | [2] 100 % of control | [3] 113 % of control

COc1ccc(Nc2cc(N)nc(N)n2)c(=S)[nH]1
inactive: [4] 97 % of control | [5] 97 % of control | [6] 93 % of control
